# Experimental data published in patent publication US20250205337A1, “COMPOSITIONS AND METHODS FOR ACTIVATING IMMUNE CELLS” (MDX Management LLC, priority 2022, published 2025).
# System: κAPC
# Assay: Proinflammatory phenotype of κAPC (KX2 refinement)
# Type: cell-based, human
# Settings: in the presence of tumor cells
# Source text: Karnelian X1 cytokines, additional cytokines, TLR ligands and other factors for phenotypic optimization of cMo-derived APCs were further tested. These efforts led to the formation of Karnelian X2, which acted to further bolster κAPC for phagocytosis, immunogenic antigen presentation, and T cell priming, and also endowed κAPC with a proinflammatory phenotype and the ability to resist repolarization in the tumor microenvironment. KX2™ comprises cytokines (choices of IFNα, IFNγ and TNFα), TLR ligands (choices of Poly IC, CpG, R848), and TPI-1.
smiles,measurement,value
O=C1C=CC(=O)C(c2cc(Cl)ccc2Cl)=C1 [TPI-1],proinflammatory phenotype of κAPC,promotes proinflammatory phenotype of κAPC
